From US9415069B2, “Immunosuppressive cells and methods of making and using thereof” (National Health Research Institutes, priority 2012, dated 2016)
Entries after “also recorded” stand apart in the source; their conditions may differ.

Legend:
[1] = system: human monocyte-derived dendritic cells (MDDCs); experiment: Surface marker phenotype of human MDDCs by flow cytometry; assay type: cell-based; conditions: for effect on CD40 expression: human iMDDCs supplemented with GRO isoform, day 7
Procedure: Human monocyte-derived dendritic cells (MDDCs) were generated from leukaphereses obtained from healthy donors. Peripheral blood mononuclear cells (PBMCs) were purified by Fycoll-Hypaque Plus (GE Health-Pharmacia, Uppsala, Sweden) density centrifugation. CD14^+ monocytes were isolated using the human CD14^+ Cell Isolation Kit (MACS, Miltenyi Biotec, Inc., Auburn, Calif., USA) according to the manufacturer's instructions. The purified CD14^+ cells (1×10^6/mL) were subsequently cultured in 2 mL MSC-CM or α-MEM completed medium with 10% pooled AB-type human serum supplemented with rhGM-CSF (80 ng/mL) and rhIL-4 (80 ng/mL) (Peprotech, NJ) in the presence or absence of GRO chemokines to induce their differentiation into DCs. An additional 1 mL of medium containing the same concentrations of rhGM-CSF and rhIL-4 with or without GRO chemokines was added to each group of cells on day 3. Half-volume of culture medium was replaced with an equal volume of fresh medium containing the same concentrations of rhGM-CSF and rhIL-4 on day 5. Maturation of MDDCs (mature DCs, mMDDCs) was induced by adding 1 μg/mL LPS to the culture medium of iMDDCs on day 5 and cells were further cultured for another 48 hours. Phenotypic changes in immature DCs (iMDDCs) and mature DCs (mMDDCs) were monitored by FACS analysis on day 7. The study protocols were approved by the Institutional Review Board of Human Subject Research Ethics Committee of Academia Sinica (AS-IRB01-10113) and the Institutional Review Board of Research Ethics Committee of National Health Research Institutes (EC 1001101).
(§1) The phenotypic profiles of monocytes, iMDDCs and mMDDCs were obtained by staining 1×10^5 cells with fluorochrome-labeled antibodies (Abs) against CD11c, HLA-DR, CD80, CD86, CD83, CD40, and DC-SIGN. The fluorescence intensity was measured by flow cytometry. The corresponding isotype-matched controls used were FITC-IgG1, FITC-IgG2a, PE-IgG2a, and PE-IgG2b (BD Biosciences, San Jose, Calif., USA). Surface-labeled cells were analyzed using a FACS Calibur-flow cytometer (BD Biosciences). For cell purification, sorting was performed on a FACS Aria cell sorter (BD Biosciences). The purity of individual sorted cell populations was greater than 95%.

[2] = system: immature MDDCs (iDCs); experiment: Endocytosis test (FITC-dextran uptake); assay type: cell-based, human
Procedure: The endocytic activity of iMDDCs or mMDDCs was measured by analyzing the cellular uptake of FITC-dextran (40 kD, FD40S, Sigma-Aldrich) as quantified by flow cytomerty. Cells (5×10^4 cells/sample/96 well V bottom plate) were incubated in RPMI-1640 medium with 1 mg/mL FITC-dextran for 30 min at 37° C. After incubation, cells were washed twice with staining buffer to remove free reagent then fixed with 1% paraformaldehyde. The signal from FITC-dextran endocytosed by cells was analyzed by FACS. Data analysis was performed using the FlowJo version 5.7.2 software. The signal obtained for cells incubated with medium in the absence of FITC-dextran was used as negative control.

[3] = system: mature MDDCs co-cultured with allogeneic T cells; experiment: MLR assay (allogeneic T-cell proliferation, [3H]-thymidine); assay type: cell-based, human
Procedure: Monocyte-derived cells (3×10^4) at different stages of differentiation were irradiated at 30 Gy using an X-ray biological irradiator (X-ray R-2000, Rad Source Technologies, Inc, Alpharetta, Ga., USA) and then cultured with purified allogenic CD3 T cells (1:10) in complete culture medium in 96-well U-bottom plate. X-ray irradiated myeloid cells and allogenic T lymphocytes were placed in a humidified CO2 incubator at 37° C. After 96 hours, [^3H]-thymidine (1 μCi) was added to each well containing either monocytes-, iMDDCs-, or mMDDCs mixed with T cells, and further incubated for 16 hours. Cells were then harvested using a Filtermate 96-well harvester and radioactivity (cpm) measured as an index of cell proliferation in a Packard microplate scintillation and luminescence counter (Perkin-Elmer-Packard; Waltham, Mass., USA).

[4] = system: MDDCs; experiment: Real-time PCR of selected genes in MDDCs from 7-day cultures; assay type: cell-based, human; conditions: MDDC differentiation in presence of GRO-γ
Procedure: Total RNA was extracted with the Trizol reagent and converted to cDNA using a ReverTra Ace set (Toyobo Life Science, Osaka, Japan), according to manufacturer's instructions. Real-time PCR analysis was performed using an ABI Prism 7900 system (Applied Biosystems, Foster City, Calif., USA). Samples were treated according to the following program: 5° C. for 2 min, 94° C. for 10 min, and 40 cycles of 95° C. for 15 s and 60° C. for 1 min. Analyses were performed in triplicate. For each sample, the cycle threshold (Ct) values were determined. Results were normalized to the GAPDH gene on the same plate. The levels of mRNA expression in different cell groups were calculated using the 2ΔCt method. Intron-spanning primers specific for each gene were designed. Their sequences are as follows: human GAPDH, […] (forward primer, F, SEQ ID NO:4), […] (reverse primer, R, SEQ ID NO:5); human IL-10, […] (F, SEQ ID NO:6), […] (R, SEQ ID NO:7); human IDO, […] (F, SEQ ID NO:8), TGACCTTTGCCCCACACAT (R, SEQ ID NO:9); human matrix-metallopeptidase-9 (MMP-9), […] (F, SEQ ID NO:10), […] (R, SEQ ID NO:11); human IL-4, […] (F, SEQ ID NO:12), GCCTGTGGAACTGCTGTGC (R, SQ ID NO:13); human IL-12p40, CGGTCATCTGCCGCAAA (F, SEQ ID NO:14), […] (R, SEQ ID NO:15); human TNF-α, […] (F, SEQ ID NO:16), CAGGCAGAAGAGCGTGGTG (R, SEQ ID NO:17); human IFN-γ, […] (F, SEQ ID NO:18), […] (R, SEQ ID NO:19); human Cox2, […] (F, SEQ ID NO:20), […] […]

[5] = system: MDDCs; experiment: ELISA of cytokines in MDDC supernatants; assay type: cell-based, human; conditions: MDDCs differentiated with GRO-γ, recultured 3 days
Procedure: Supernatants from MDDCs alone (5×10^4), CD3^+ purified T-cells alone (isolated by the human CD3^+ Cell Isolation Kit, MACS, Miltenyi Biotec, Inc., 5×10^5), or MDDCs (5×10^4) co-cultured with CD3^+ purified T-cells (5×10^5) were harvested, and the concentrations of IL-4, IL-10, IL-12, INF-γ, IL-6 and TNF-α in supernatants were determined in triplicates using commercial ELISA kits according to the manufacturer's protocols (R&D systems).

[6] = system: IDO in iDCs; experiment: Intracellular IDO staining, confocal microscopy; assay type: cell-based, human; conditions: iDCs differentiated in presence of GRO-γ
Procedure: MDDCs were generated in the presence or absence of GRO-γ and then analyzed for the intracellular expression of the IDO protein. Cells (5×10^4) were plated onto poly-L-lysine-coated glass slides for 15 min, and washed twice quickly with 0.5 mL PBS. Cells were fixed by adding 0.5 mL of 1% paraformaldehyde (Sigma-Aldrich) for 10 minutes, and then subsequently washed with PBS three times and incubated in 0.5 mL of 1% BSA/PBS for 30 min at room temperature. Cells were washed with 0.1% (v/v) NP-40/PBS three times, and then incubated with 0.5% BSA/PBS containing 1:50 diluted mouse anti-human IDO antibody (Chemicon Inc, Temecula, Calif., USA) at room temperature for 1 h. Cells were further washed with 0.1% (v/v) NP-40/PBS to remove unbound antibody, and then incubated with 1:150 diluted anti-mouse IgG conjugated with DyLight 488 (Sigma-Aldrich) for 1 h at room temperature. After three final washes with 0.1% (v/v) NP-40/PBS, the slides were mounted with 10% Glycerol/PBS and sealed with nail polish. Fluorescent images were captured using a Leica TCS SP5 camera (Leica Camera AG, Solms, Germany).

[7] = system: BMDCs from C57BL/6 mice; experiment: FACS of CD11b+ Gr-1+ cells in mouse BMDCs; assay type: cell-based; conditions: GM-CSF with or without GRO-γ, six days
Procedure: as §1
(§2) Murine bone marrow-derived dendritic cells (BM-DCs) were harvested and differentiated into dentritic cells as previously described (Song et al., 2011). Briefly, bone marrow cells from C57BL/6 mice were cultured at a density of 2×10^5 cells/mL in petri dishes containing 10 mL of complete RPMI-1640 medium with 200 U/mL (20 ng/mL) recombinant mouse GM-CSF in the presence or absence of recombinant mouse GRO chemokine. On day 3, half of the volume of the culture medium was replaced by complete RPMI medium containing 20 ng/mL of […] combined with or without GRO. On day 6, BMDCs from the different treatment groups were collected from each dish, washed and characterized.

[8] = system: CD11b+ Gr-1+ BMDCs; experiment: ARG-1 and iNOS expression in mouse BMDCs; assay type: cell-based
Procedure: Total RNA was extracted with the Trizol reagent and converted to cDNA using a ReverTra Ace set (Toyobo Life Science, Osaka, Japan), according to manufacturer's instructions. Real-time PCR analysis was performed using an ABI Prism 7900 system (Applied Biosystems, Foster City, Calif., USA). Samples were treated according to the following program: […], 94° C. for 10 min, and 40 cycles of 95° C. for 15 s and 60° C. for 1 min. Analyses were performed in triplicate. For each sample, the cycle threshold (Ct) values were determined. Results were normalized to the GAPDH gene on the same plate. The levels of mRNA expression in different cell groups were calculated using the 2ΔCt method. Intron-spanning primers specific for each gene were designed. Their sequences are as follows: human GAPDH, […] (forward primer, F, SEQ ID NO:4), […] (reverse primer, R, SEQ ID NO:5); human IL-10, […] (F, SEQ ID NO:6), […] (R, SEQ ID NO:7); human IDO, […] (F, SEQ ID NO:8), TGACCTTTGCCCCACACAT (R, SEQ ID NO:9); human matrix-metallopeptidase-9 (MMP-9), […] (F, SEQ ID NO:10), […] (R, SEQ ID NO:11); human IL-4, […] (F, SEQ ID NO:12), GCCTGTGGAACTGCTGTGC (R, SQ ID NO:13); human IL-12p40, CGGTCATCTGCCGCAAA (F, SEQ ID NO:14), […] (R, SEQ ID NO:15); human TNF-α, […] (F, SEQ ID NO:16), CAGGCAGAAGAGCGTGGTG (R, SEQ ID NO:17); human IFN-γ, […] (F, SEQ ID NO:18), […] (R, SEQ ID NO:19); human Cox2, […] (F, SEQ ID NO:20), […] (R, SEQ ID NO:21); human PD-L1, […] (F, SEQ ID NO:22), […] (R, SEQ ID NO:23); human PD-L2, […] (F, SEQ ID NO:24), […] (R, SEQ ID NO:25); human TGF-β, […] (F, SEQ ID NO:26), […] (R, SEQ ID NO:27); human IL-6, […] (F, SEQ ID NO:28), […] (R, SEQ ID NO:29); IL-1β, […] (F, SEQ ID NO:30), […] (R, SEQ ID NO:31); mouse GAPDH, GATGCAGGGATGATGTTC (F, SEQ ID NO:32), TGCACCACCAACTGCTTAG (R, SEQ ID NO:33); mouse Arginase 1(Arg-1), […] (F, SEQ ID NO:34), […] (R, SEQ ID NO:35); mouse iNOS, […] (F, SEQ ID NO:36), […] (R, SEQ ID NO:37); mouse IFN-γ, […] (F, SEQ ID NO:38), […] (R, SEQ ID NO:39).
as §2

Row | Compound | effect on CD40 expression [1] | surface expression of CD40, CD83, CD80, CD11c, CD86 and DC-SIGN ([1]; iDCs, recombinant GRO-γ 250 ng/mL vs absence) | DC-SIGN expression ([1]; mDCs, addition of GRO-γ) | endocytic activity of iDCs ([2]; GRO-γ 250 ng/mL) | ability of mDCs to stimulate T-cell proliferation in mixed lymphocyte reaction ([3]; GRO-γ 250 ng/mL) | expression levels of IL-10, IL-4, TGF-β, IL-1β, IL-6, COX2, PD-L1, PD-L2, MMP-9 and IDO genes [4] | mRNA levels of TNF-α, IFN-γ and IL-12 [4] | levels of IFN-γ and IL-12 in supernatants [5] | levels of IL-4 and IL-10 in supernatants [5] | intracellular expression of IDO [6] | percentage (frequency) of double positive CD11b+ Gr-1+ cells in BMDCs [7] | protein expression and enzymatic activity of Arg-1 and iNOS ([8]; GRO-γ treated BMDCs) | mRNA levels of ARG-1 and iNOS ([8]; GRO-γ-treated BMDCs vs BMDCs) | expression of the Arg-1 gene, the iNOS gene, and the MDSC-related genes ([8]; presence of GRO-γ during BMDC differentiation) | reversal of suppressive effect of GRO-γ on selected surface markers ([1]; iDCs and mDCs, SB225002 250 nM pretreatment 30 min plus GRO-γ) | DC-SIGN expression ([1]; iDCs and mDCs, addition of SB225002 with GRO-γ) | blocking of GRO-γ effect on endocytic activity of iDCs ([2]; SB225002 250 nM plus GRO-γ) | blocking of GRO-γ effect on ability of mDCs to stimulate T-cell proliferation ([3]; SB225002 250 nM plus GRO-γ) | reversal of induction of ARG-1 and iNOS genes ([8]; GM-CSF/GRO-γ/SB225002 treated BMDCs)
1 | GRO-γ: recombinant GRO chemokine CXCL3 (SEQ ID NO:3); human from PeproTech, mouse from R&D Systems | significant inhibitory effects | significantly reduced | not affected | significantly down-regulated | significantly down-regulated | significantly up-regulated | significantly down-regulated | reduced levels | elevated levels | increase in intracellular expression | did not depend on the presence of GRO-γ; also recorded: similar | increased | elevated | up-regulated | – | – | – | – | –
2 | O=C(Nc1ccc([N+](=O)[O-])cc1O)Nc1ccccc1Br [SB225002, N-(2-Hydroxy-4-nitrophenyl)-N′-(2-bromophenyl) urea, reference compound] | – | – | – | – | – | – | – | – | – | – | – | – | – | – | significantly reversed | not affected | blocked | blocked | reversed the induction
3 | GRO-α: recombinant human GRO chemokine CXCL1 (SEQ ID NO:1), PeproTech | significant inhibitory effects | – | – | – | – | – | – | – | – | – | – | – | – | – | – | – | – | – | –
